Experimental data taken from US8188102B2, “Amide derivative for inhibiting the growth of cancer cells” (Hanmi Holdings Co., Ltd., priority 2007, dated 2012).

Legend:
[1] = system: A431 skin cancer cell line; assay: Cancer cell growth inhibition, A431 (SRB); settings: Homo sapiens, A-431, 72 h, read-out: ID50 (nM) A431
[2] = system: SK-Br3 breast cancer cell line; assay: Cancer cell growth inhibition, SK-Br3 (SRB); settings: Homo sapiens, SK-BR-3, 72 h, read-out: ID50 (nM) SK-Br3

Row | Compound | IC50 [1] [nM] | IC50 [2] [nM]
1 | COC(=O)/C=C\C(=O)N1CCC(Oc2cc3c(Nc4ccc(F)c(Cl)c4F)ncnc3cc2OC)CC1 [Example 83, (Z)-methyl 4-(4-(4-(3-chloro-2,4-difluorophenylamino)-7-methoxyquinazolin-6-yloxy)piperidin-1-yl)-4-oxobut-2-enoate] | 9 | 23
2 | COc1cc2ncnc(Nc3cccc(Cl)c3F)c2cc1OC1CCN(C(=O)/C=C/CN(C)C)CC1 [Example 100, (E)-1-(4-(4-(3-chloro-2-fluorophenylamino)-7-methoxyquinazolin-6-yloxy)piperidin-1-yl)-4-(dimethylamino)but-2-en-1-one] | 76 | 15
3 | C=CC(=O)N1CC[C@H](Oc2cc3c(Nc4ccc(F)c(Cl)c4F)ncnc3cc2OC)C[C@H]1C(=O)OC [Example 119, (2S,4S)-methyl 1-acryloyl-4-(4-(3-chloro-2,4-difluorophenylamino)-7-methoxyquinazolin-6-yloxy)piperidin-2-carboxylate] | 5 | 6
4 | C/C=C/C(=O)N1CC[C@H](Oc2cc3c(Nc4ccc(F)c(Cl)c4F)ncnc3cc2OC)C1 [Example 2, (E)-1-((3S)-3-(4-(3-chloro-2,4-difluorophenylamino)-7-methoxyquinazolin-6-yloxy)pyrrolidin-1-yl)but-2-en-1-one] | 85 | 316
5 | COc1cc2ncnc(Nc3ccc(F)c(Cl)c3F)c2cc1OC1CCN(C(=O)/C=C/CN(C)C)CC1 [Example 98, (E)-1-(4-(4-(3-chloro-2,4-difluorophenylamino)-7-methoxyquinazolin-6-yloxy)piperidin-1-yl)-4-(dimethylamino)but-2-en-1-one] |  | 45
6 | COc1cc2ncnc(Nc3ccc(Cl)c(Cl)c3F)c2cc1OC1CCN(C(=O)/C=C\Cl)CC1 [Example 89, (Z)-3-chloro-1-(4-(4-(3,4-dichloro-2-fluorophenylamino)-7-methoxyquinazolin-6-yloxy)piperidin-1-yl)prop-2-en-1-one] | 14 | 85
7 | C=C(CN1CCN(C)CC1)C(=O)N1CC(Oc2cc3c(Nc4ccc(F)c(Cl)c4F)ncnc3cc2OC)C1 [Example 106, 1-(3-(4-(3-chloro-2,4-difluorophenylamino)-7-methoxyquinazolin-6-yloxy)azetidin-1-yl)-2-((4-methylpiperazin-1-yl)methyl)prop-2-en-1-one] | 1 | 0.5
8 | C=CC(=O)N1CCC(Oc2cc3c(Nc4ccc(Br)c(F)c4)ncnc3cc2OC)CC1 [Example 62, 1-(4-(4-(4-bromo-3-fluorophenylamino)-7-methoxyquinazolin-6-yloxy)piperidin-1-yl)pro-2-pen-1-one] | 7 | 6
9 | C=C(CN1CCCCC1)C(=O)N1CC(Oc2cc3c(Nc4cccc(Cl)c4F)ncnc3cc2OC)C1 [Example 107, 1-(3-(4-(3-chloro-2-fluorophenylamino)-7-methoxyquinazolin-6-yloxy)azetidin-1-yl)-2-(piperidin-1-ylmethyl)prop-2-en-1-one] | 2.4 | 0.7
10 | C=CC(=O)N1CCC(Oc2cc3c(Nc4ccc(Cl)c(C)c4)ncnc3cc2OC)CC1 [Example 60, 1-(4-(4-(4-chloro-3-methylphenylamino)-7-methoxyquinazolin-6-yloxy)piperidin-1-yl)pro-2-pen-1-one] | 93 | 261
11 | C=CC(=O)NCCOc1cc2c(Nc3ccc(F)c(Cl)c3F)ncnc2cc1OC [Example 21, N-(2-(4-(3-chloro-2,4-difluorophenylamino)-7-methoxyquinazolin-6-yloxy)ethyl)acrylamide] | 699 | 210
12 | C=CC(=O)N1CCC(Oc2cc3c(Nc4cccc(C(F)(F)F)c4F)ncnc3cc2OC)CC1 [Example 65, 1-(4-(4-(2-fluoro-3-(trifluoromethyl)phenylamino)-7-methoxyquinazolin-6-yloxy)piperidin-1-yl)pro-2-pen-1-one] | 11 | 15
13 | COc1cc2ncnc(Nc3ccc(F)c(Cl)c3F)c2cc1O[C@H]1CCN(C(=O)/C=C/CN2CCCC2)C1 [Example 95, (E)-1-((3S)-3-(4-(3-chloro-2,4-difluorophenylamino)-7-methoxyquinazolin-6-yloxy)pyrrolidin-1-yl)-4-(pyrrolidin-1-yl)but-2-en-1-one] | 8 | 23
14 | C=CC(=O)N1CC[C@H](Oc2cc3c(Nc4ccc(F)c(Cl)c4F)ncnc3cc2OC)C[C@H]1C(=O)NC(C)C [Example 124, (2S,4S)-1-acryloyl-4-(4-(3-chloro-2,4-difluorophenylamino)-7-methoxyquinazolin-6-yloxy)-N-isopropylpiperidin-2-carboxamide] | 7.5 | 2.8
15 | C=CC(=O)N1CC[C@H](Oc2cc3c(Nc4ccc(F)c(Cl)c4)ncnc3cc2OC)C1 [Example 13, 1-((3S)-3-(4-(3-chloro-4-fluorophenylamino)-7-methoxyquinazolin-6-yloxy)pyrrolidin-1-yl)pro-2-pen-1-one] |  | 17
16 | C=CC(=O)N1CCC(Oc2cc3c(Nc4cc(Cl)c(O)c(Cl)c4)ncnc3cc2OC)CC1 [Example 50, 1-(4-(4-(3,5-dichloro-4-hydroxyphenylamino)-7-methoxyquinazolin-6-yloxy)piperidin-1-yl)pro-2-pen-1-one] | 179 | 91

Row | Compound | IC50 [1] [nM] | IC50 [2] [nM]
17 | C=CC(=O)N1CCC(Oc2cc3c(Nc4cccc(N(C)C)c4)ncnc3cc2OC)CC1 [Example 64, 1-(4-(4-(3-(dimethylamino)phenylamino)-7-methoxyquinazolin-6-yloxy)piperidin-1-yl)pro-2-pen-1-one] | 142 | 11
18 | COc1cc2ncnc(Nc3ccc(F)c(Cl)c3F)c2cc1O[C@H]1CCN(C(=O)/C=C/CN2CCOCC2)C1 [Example 94, (E)-1-((3S)-3-(4-(3-chloro-2,4-difluorophenylamino)-7-methoxyquinazolin-6-yloxy)pyrrolidin-1-yl)-4-morpholinobut-2-en-1-one] | 85 | 123
19 | C=CC(=O)N1CC[C@H](Oc2cc3c(Nc4ccc(F)c(Cl)c4F)ncnc3cc2OC)C[C@H]1C(=O)NCC [Example 122, (2S,4S)-1-acryloyl-4-(4-(3-chloro-2,4-difluorophenylamino)-7-methoxyquinazolin-6-yloxy)-N-ethylpiperidin-2-carboxamide] | 8 | 2.3
20 | COc1cc2ncnc(Nc3ccc(F)c(Cl)c3F)c2cc1OC1CCN(C(=O)/C=C\C(=O)O)CC1 [Example 85, (Z)-4-(4-(4-(3-chloro-2,4-difluorophenylamino)-7-methoxyquinazolin-6-yloxy)piperidin-1-yl)-4-oxobut-2-enoic acid] | 41 | 395
21 | C=CC(=O)N1CCC(Oc2cc3c(Nc4ccc(O)c(Cl)c4)ncnc3cc2OC)CC1 [Example 78, 1-(4-(4-(3-chloro-4-hydroxyphenylamino)-7-methoxyquinazolin-6-yloxy)piperidin-1-yl)pro-2-pen-1-one] | 109 | 65
22 | C=C(C)C(=O)N1CC(Oc2cc3c(Nc4ccc(F)c(Cl)c4F)ncnc3cc2OC)C1 [Example 29, 1-(3-(4-(3-chloro-2,4-difluorophenylamino)-7-methoxyquinazolin-6-yloxy)azetidin-1-yl)-2-methylpro-2-pen-1-one] | 29 | 19
23 | C=CC(=O)N1CC[C@@H](Oc2cc3c(Nc4ccc(F)c(Cl)c4)ncnc3cc2OC)C1 [Example 14] |  | 128
24 | COc1cc2ncnc(Nc3ccc(F)c(Cl)c3F)c2cc1O[C@H]1CCN(C(=O)/C=C/CN(C)C)C1 [Example 92, (E)-1-((3S)-3-(4-(3-chloro-2,4-difluorophenylamino)-7-methoxyquinazolin-6-yloxy)pyrrolidin-1-yl)-4-(dimethylamino)but-2-en-1-one] | 4 | 8
25 | COc1cc2ncnc(Nc3ccc(Cl)c(Cl)c3F)c2cc1OC1CCN(C(=O)/C=C/CN(C)C)CC1 [Example 99, (E)-1-(4-(4-(3,4-dichloro-2-fluorophenylamino)-7-methoxyquinazolin-6-yloxy)piperidin-1-yl)-4-(dimethylamino)but-2-en-1-one] | 165 | 39
26 | C=CC(=O)N1CCC(Oc2cc3c(Nc4cccc(Cl)c4OC)ncnc3cc2OC)CC1 [Example 59, 1-(4-(4-(3-chloro-2-methoxyphenylamino)-7-methoxyquinazolin-6-yloxy)piperidin-1-yl)pro-2-pen-1-one] | 3 | 9
27 | C=CC(=O)N1CC(Oc2cc3c(Nc4ccc(F)c(Cl)c4F)ncnc3cc2OCCOC)C1 [Example 116, 1-(3-(4-(3-chloro-2,4-difluorophenylamino)-7-(2-methoxyethoxy)quinazolin-6-yloxy)azetidin-1-yl)prop-2-en-1-one] | 883 | 327
28 | C=C(CN(C)C)C(=O)N1CCC(Oc2cc3c(Nc4ccc(F)c(Cl)c4F)ncnc3cc2OC)CC1 [Example 109, 1-(4-(4-(3-chloro-2,4-difluorophenylamino)-7-methoxyquinazolin-6-yloxy)piperidin-1-yl)-2-((dimethylamino)methyl)prop-2-en-1-one] | 2.7 | 3.5
29 | COc1cc2ncnc(Nc3cccc(Cl)c3F)c2cc1O[C@H]1CCN(C(=O)/C=C/CN(C)C)C1 [Example 96, (E)-1-((3S)-3-(4-(3-chloro-2-fluorophenylamino)-7-methoxyquinazolin-6-yloxy)pyrrolidin-1-yl)-4-(dimethylamino)but-2-en-1-one] | 8 | 46
30 | C=CC(=O)N1CCC(Oc2cc3c(Nc4ccc(Cl)c(Cl)c4)ncnc3cc2OC)CC1 [Example 44, 1-(4-(4-(3,4-dichlorophenylamino)-7-methoxyquinazolin-6-yloxy)piperidin-1-yl)pro-2-pen-1-one] |  | 2
31 | C=CC(=O)N1CCC(Oc2cc3c(Nc4ccc(OCc5ccccn5)c(Cl)c4)ncnc3cc2OC)CC1 [Example 55, 1-(4-(4-(3-chloro-4-(pyridin-2-ylmethoxy)phenylamino)-7-methoxyquinazolin-6-yloxy)piperidin-1-yl)pro-2-pen-1-one] |  | 2
